Laboratory results taken from the supplement of paper PMC8617591.

Experiments:
[1] = test system: Mycobacterium tuberculosis Erdman (autoluminescent); experiment: total FIC50 (Loewe) at 50% inhibition, three-drug combination (log2); higher = more antagonistic
Method: (§1)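 DiaMOND equipotent three-drug combination dose responses (10 doses, 1.5- or 2-fold spacing, centred on IC90) against autoluminescent M. tuberculosis Erdman in 8 in vitro models. Read-out is OD600, or luminescence for the intracellular and dormancy models, normalised to untreated wells. Hill-fit Einf, AUC25 and GRinf are potency metrics; FIC50 and FIC90 are total Loewe fractional inhibitory concentrations as log2 (negative = synergy).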

[2] = test system: Mycobacterium tuberculosis Erdman (autoluminescent); experiment: total FIC90 (Loewe) at 90% inhibition, three-drug combination (log2); higher = more antagonistic
Method: as §1

[3] = test system: Mycobacterium tuberculosis Erdman (autoluminescent); experiment: Einf, fitted maximum growth inhibition of three-drug combination (fraction); higher = stronger maximal inhibition
Method: as §1

[4] = test system: Mycobacterium tuberculosis Erdman (autoluminescent); experiment: AUC25, normalised area under dose response up to IC25 (three-drug combination) (fraction (0-1)); higher = more potent at low dose
Method: as §1

[5] = test system: Mycobacterium tuberculosis Erdman (autoluminescent); experiment: GRinf, maximum normalised growth rate inhibition (three-drug combination) (unitless (-1 to 1)); higher = less effect (negative = killing)
Method: as §1

COc1nc2ccc(Br)cc2cc1[C@@H](c1ccccc1)[C@@](O)(CCN(C)C)c1cccc2ccccc12 [bedaquiline] + NNC(=O)c1ccncc1 [isoniazid] + COc1c(N2C[C@@H]3CCCN[C@@H]3C2)c(F)cc2c(=O)c(C(=O)O)cn(C3CC3)c12 [moxifloxacin]
Conditions	AUC25, [4]	Einf, [3]	GRinf, [5]	total FIC50, [1]	total FIC90, [2]
in vitro model: acidic pH 5.7, time point: constant (~7 days, model-specific)	0.098	0.7	-0.325	0.527	–
in vitro model: acidic pH 5.7, time point: terminal (~4-5 doublings, model-specific)	0.0943	0.958	-0.313	0.604	0.776
in vitro model: intracellular J774, time point: constant = terminal	–	0.972	-0.784	–	1.2

Conditions	AUC25, [4]	Einf, [3]	GRinf, [5]	total FIC50, [1]	total FIC90, [2]
in vitro model: butyrate, time point: constant (~7 days, model-specific)	0.0762	0.94	-0.0717	0.776	0.906
in vitro model: butyrate, time point: terminal (~4-5 doublings, model-specific)	0.0478	0.973	-0.0805	0.672	0.575
in vitro model: cholesterol 0.05 mM, time point: constant (~7 days, model-specific)	0.0995	0.742	-0.202	0.612	–
in vitro model: cholesterol 0.05 mM, time point: terminal (~4-5 doublings, model-specific)	0.0886	0.923	-0.178	0.549	-0.479
in vitro model: cholesterol-high 0.2 mM, time point: constant (~7 days, model-specific)	0.0861	0.952	-0.436	0.394	0.57
in vitro model: cholesterol-high 0.2 mM, time point: terminal (~4-5 doublings, model-specific)	0.0461	0.991	-0.601	0.581	0.234
in vitro model: dormancy (butyrate + nitrate, low O2), time point: constant (~7 days, model-specific)	0.0686	0.938	0.161	0.895	0.336
in vitro model: dormancy (butyrate + nitrate, low O2), time point: terminal (~4-5 doublings, model-specific)	0.0705	0.997	-0.252	0.646	0.782
in vitro model: standard 7H9 glycerol, time point: constant = terminal	0.0816	0.987	-0.154	0.375	0.614
in vitro model: valerate, time point: constant (~7 days, model-specific)	0.1	0.925	-0.134	0.901	–
in vitro model: valerate, time point: terminal (~4-5 doublings, model-specific)	0.067	0.949	-0.0225	0.672	1.33

COc1nc2ccc(Br)cc2cc1[C@@H](c1ccccc1)[C@@](O)(CCN(C)C)c1cccc2ccccc12 [bedaquiline] + NNC(=O)c1ccncc1 [isoniazid] + NC(=O)c1cnccn1 [pyrazinamide]
Conditions	AUC25, [4]	Einf, [3]	GRinf, [5]	total FIC50, [1]	total FIC90, [2]
in vitro model: acidic pH 5.7, time point: constant (~7 days, model-specific)	0.0904	0.873	-0.529	0.0123	–
in vitro model: acidic pH 5.7, time point: terminal (~4-5 doublings, model-specific)	0.0797	0.981	-0.413	0.0722	0.15
in vitro model: intracellular J774, time point: constant = terminal	–	0.987	-0.53	–	0.651

Conditions	AUC25, [4]	Einf, [3]	GRinf, [5]	total FIC50, [1]	total FIC90, [2]
in vitro model: butyrate, time point: constant (~7 days, model-specific)	0.0809	0.949	-0.109	0.406	0.726
in vitro model: butyrate, time point: terminal (~4-5 doublings, model-specific)	0.0598	0.978	-0.0731	0.373	0.404
in vitro model: cholesterol 0.05 mM, time point: constant (~7 days, model-specific)	0.103	0.726	-0.236	–	–
in vitro model: cholesterol 0.05 mM, time point: terminal (~4-5 doublings, model-specific)	0.102	0.935	-0.279	0.232	–
in vitro model: cholesterol-high 0.2 mM, time point: constant (~7 days, model-specific)	0.0921	0.995	-0.637	0.548	–
in vitro model: cholesterol-high 0.2 mM, time point: terminal (~4-5 doublings, model-specific)	0.068	1	-0.598	0.805	0.505
in vitro model: dormancy (butyrate + nitrate, low O2), time point: constant (~7 days, model-specific)	0.0789	0.922	0.125	-0.318	-0.645
in vitro model: dormancy (butyrate + nitrate, low O2), time point: terminal (~4-5 doublings, model-specific)	0.0524	0.992	-0.123	0.063	-0.625
in vitro model: standard 7H9 glycerol, time point: constant = terminal	0.0575	0.957	-0.0565	0.231	–
in vitro model: valerate, time point: constant (~7 days, model-specific)	0.0999	0.847	0.0396	0.527	–
in vitro model: valerate, time point: terminal (~4-5 doublings, model-specific)	0.0629	0.953	-0.0326	0.64	1.01

COc1nc2ccc(Br)cc2cc1[C@@H](c1ccccc1)[C@@](O)(CCN(C)C)c1cccc2ccccc12 [bedaquiline] + NNC(=O)c1ccncc1 [isoniazid] + O=[N+]([O-])c1cn2c(n1)OC[C@@H](OCc1ccc(OC(F)(F)F)cc1)C2 [pretomanid]
Conditions	AUC25, [4]	Einf, [3]	GRinf, [5]	total FIC50, [1]	total FIC90, [2]
in vitro model: acidic pH 5.7, time point: constant (~7 days, model-specific)	0.13	0.923	-0.789	0.219	–
in vitro model: acidic pH 5.7, time point: terminal (~4-5 doublings, model-specific)	0.108	0.988	-0.439	0.209	0.765
in vitro model: intracellular J774, time point: constant = terminal	–	0.996	-0.588	–	0.892

Conditions	AUC25, [4]	Einf, [3]	GRinf, [5]	total FIC50, [1]	total FIC90, [2]
in vitro model: butyrate, time point: constant (~7 days, model-specific)	0.0753	0.947	-0.112	1.04	1.16
in vitro model: butyrate, time point: terminal (~4-5 doublings, model-specific)	0.0523	0.975	-0.0872	0.897	0.889
in vitro model: cholesterol 0.05 mM, time point: constant (~7 days, model-specific)	0.0895	0.722	-0.21	0.775	–
in vitro model: cholesterol 0.05 mM, time point: terminal (~4-5 doublings, model-specific)	0.0672	0.924	-0.246	6.17	0.608
in vitro model: cholesterol-high 0.2 mM, time point: constant (~7 days, model-specific)	0.0717	0.887	-0.196	0.37	–
in vitro model: cholesterol-high 0.2 mM, time point: terminal (~4-5 doublings, model-specific)	0.0327	0.992	-0.535	0.584	0.0623
in vitro model: dormancy (butyrate + nitrate, low O2), time point: constant (~7 days, model-specific)	0.0674	0.924	0.224	-0.188	-0.985
in vitro model: dormancy (butyrate + nitrate, low O2), time point: terminal (~4-5 doublings, model-specific)	0.0671	0.994	-0.159	-0.769	-0.523
in vitro model: standard 7H9 glycerol, time point: constant = terminal	0.0757	0.966	-0.103	0.177	0.0648
in vitro model: valerate, time point: constant (~7 days, model-specific)	0.129	0.886	-0.333	0.632	1.13
in vitro model: valerate, time point: terminal (~4-5 doublings, model-specific)	0.109	0.953	-0.161	0.661	1.97
